“And” between values parts separate entries of the source, which are not always exact repeats. Equal values may be shown once.
molecular target: T1, CETP (Homo sapiens, UniProt P11597); test: CETP activity in vitro: transfer of [3H]CE from HDL donor to LDL acceptor particles; assay type: biochemical; conditions: 10 μm
T1 construct: made in house; host or cells: CHO cells (serum-free conditioned medium)
T1 sequence (P11597 18-493): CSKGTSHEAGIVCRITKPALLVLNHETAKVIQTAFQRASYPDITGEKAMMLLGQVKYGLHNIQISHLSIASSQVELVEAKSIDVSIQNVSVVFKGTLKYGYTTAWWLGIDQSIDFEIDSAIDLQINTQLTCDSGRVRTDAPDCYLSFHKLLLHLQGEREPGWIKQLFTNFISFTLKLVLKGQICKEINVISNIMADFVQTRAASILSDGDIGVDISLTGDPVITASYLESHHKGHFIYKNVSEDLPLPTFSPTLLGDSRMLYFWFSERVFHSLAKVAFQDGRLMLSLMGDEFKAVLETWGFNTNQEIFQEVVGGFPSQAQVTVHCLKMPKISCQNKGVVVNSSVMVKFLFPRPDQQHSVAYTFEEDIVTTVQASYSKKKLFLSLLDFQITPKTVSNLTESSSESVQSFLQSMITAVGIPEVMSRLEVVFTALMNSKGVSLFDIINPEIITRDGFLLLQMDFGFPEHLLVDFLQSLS
Procedure: The ability of compounds to inhibit CETP were assessed using an in vitro assay that measured the rate of transfer of radiolabeled cholesteryl ester ([^3H]CE) from HDL donor particles to LDL acceptor particles. Details of the assay are provided by Glenn et al. (“Quantification of Cholesteryl Ester Transfer Protein (CETP): A) CETP Activity and B) Immunochemical Assay of CETP Protein,” Meth. Enzymol., Glenn and Melton (Meth. Enzymol., 263, 339-351 (1996), which is incorporated herein by reference). CETP was obtained from the serum-free conditioned medium of CHO cells transfected with a cDNA for CETP (Wang, S. et al. J. Biol Chem. 267, 17487-17490 (1992), which is incorporated herein by reference).
To measure CETP activity, [^3H]CE-labeled HDL, LDL, CETP and assay buffer (50 mM tris(hydroxymethyl)amino-methane, pH 7.4; 150 mM sodium chloride; 2 mM ethylenediamine-tetraacetic acid; 1% bovine serum albumin) were incubated in a volume of 200 μl, for 2 hours at 37° C. in 96 well plates. LDL was differentially precipitated by the addition of 50 μl of 1% (w/v) dextran sulfate/0.5 M magnesium chloride, mixed by vortex, and incubated at room temperature for 10 minutes The solution (200μl) was transferred to a filter plate (Millipore). After filtration, the radioactivity present in the precipitated LDL was measured by liquid scintillation counting.
This value was defined as the IC50.

% transfer at 10 μm | SMILES
95^D % | COC(=O)c1c(C(F)F)nc(C(F)(F)F)c(SC2CCCO2)c1CC(C)C (stereo not drawn) [Compound 150, Methyl 2-(Difluoromethyl)-4-(2-methylpropyl)-5-[(tetrahydro-2-furyl)thio]-6-(trifluoromethyl)-3-pyridinecarboxylate]

same assay, conditions: 50% inhibition of [3H]CE transfer from HDL to LDL, 2 hours at 37° C.; read-out: IC50(μm)

IC50 | SMILES
70 µM | COC(=O)c1c(C(F)F)nc(C(F)(F)F)c(C(N)=S)c1CC(C)C [Compound 77, Methyl 2-(Difluoromethyl)-4-(2-methylpropyl)-5-(aminothionocarbonyl)-6-(trifluoromethyl) -3-pyridinecarboxylate]
40 µM | CCOC(=O)c1c(C(F)F)nc(C(F)(F)F)c(C(=O)OCC)c1SC1CCCC1 [Compound 22, Diethyl 2-(Difluoromethyl)-4-(cyclopentylthio)-6-(trifluoromethyl)-3,5-pyridinedicarboxylate]
> 100 µM and 70 µM | COC(=O)c1c(C(F)F)nc(C(F)(F)F)c(C(=O)Oc2cccc(OC)c2)c1CC(C)C [Compound 165, 3-Methyl 5-(3-Methoxyphenyl) 2-(Difluoromethyl)-4-(2-methylpropyl)-6-(trifluoromethyl)-3,5-pyridicarboxylate]
50 µM | CCOC(=O)c1c(C(F)(F)F)nc(C(F)(F)F)c(C)c1OC(C)C [Compound 53, Ethyl 2,6-Bis(trifluoromethyl)-4-(isopropoxy)-5-methyl-3-pyridinecarboxylate]
45 µM | COC(=O)c1c(C(F)F)nc(C(F)(F)F)c(CI)c1CC(C)C [Compound 32, Methyl 2-(Difluoromethyl)-5-(iodomethyl)-4-(2-methylpropyl)-6-(trifluoromethyl)-3-pyridinecarboxylate]
45 µM | COC(=O)c1c(OCc2ccccc2)cc(C(F)(F)F)nc1C(F)(F)F [Compound 37, Methyl 2,6-bis(Trifluoromethyl)-4-(benzyloxy)-3-pyridinecarboxylate]
50 µM | COC(=O)c1c(C(F)(F)F)ncc(C(=O)c2cnc(C(F)(F)F)c(C(=O)OC)c2OC(C)C)c1OC(C)C [Compound 54]

SMILES | IC50
CCOC(=O)c1c(C(F)(F)F)nc(C(F)F)c(NC(=O)Nc2c(C(F)F)nc(C(F)(F)F)c(C(=O)OCC)c2CC)c1CC [Compound 48] | 50 µM

same assay, conditions: @ 100 μm; footnotes A and B of Table 6

SMILES | CE transferred
COC(=O)c1c(C(F)F)nc(C(F)(F)F)c(CSc2nccn2C)c1CC(C)C [Compound 188, Methyl 5-[(1-Methylimidazol-2-yl)thiomethyl]-2-(difluoromethyl)-4-(2-methylpropyl)-6-(trifluoromethyl)-3-pyridinecarboxylate] | ^A90% CE transferred @ 100 μm.

same assay, conditions: IC50(μm), 50% inhibition of [3H]CE transfer from HDL to LDL, 2 hours at 37° C.

SMILES | IC50
COC(=O)c1c(C(F)F)nc(C(F)(F)F)c(SCSC)c1CC(C)C [Compound 33, Methyl 2-(Difluoromethyl)-4-(2-methylpropyl)-5-(methylthiomethylthio)-6-(trifluoromethyl)-3-pyridinecarboxylate] | 45 µM
CCOC(=O)c1c(C(F)(F)F)nc(C(F)F)c(C(=O)OC)c1S [Compound 2, 3-Methyl 5-Ethyl 2-(Difluoromethyl)-4-mercapto-6-(trifluoromethyl)-3,5-pyridinedicarboxylate] | 3 µM
CCSC(C)c1c(C(F)(F)F)nc(C(F)F)c(C(=O)OC)c1CC1CC1 (stereo not drawn) [Compound 21] | 40 µM
COC(=O)c1c(C(F)(F)F)nc(C(F)(F)F)c(C2=NCCS2)c1CC(C)C [Compound 12, Methyl 2,6-Bis(trifluoromethyl)-5-(4,5-dihydro-2-thiazoly)-4-(2-methylpropyl)-3-pyridinecarboxylate] | 25 µM
COC(=O)c1c(C(F)F)nc(C(F)(F)F)c(N=C(SC)SC)c1CC(C)C [Compound 42, Methyl 5-{[Bis(methylthio)methylene]amino}-2-(difluoromethyl)-4-(2-methylpropyl)-6-(trifluoromethyl)-3-pyridinecarboxylate] | 50 µM
COC(=O)c1c(C(F)F)nc(C(F)(F)F)c(C(=O)OC)c1CCC(C)C [Compound 49] | 50 µM

same assay, conditions: IC50, Table 6, compounds of formula T-6

SMILES | IC50
COC(=O)c1c(C(F)F)nc(C(F)(F)F)c(CSc2ccc([N+](=O)[O-])cc2)c1CC(C)C [Compound 198, Methyl 5-[(4-Nitrophenyl)thiomethyl]-2-(difluoromethyl)-4-(2-methylpropyl)-6-(trifluoromethyl)-3-pyridinecarboxylate] | 7 µM
COC(=O)c1c(C(F)F)nc(C(F)(F)F)c(CSc2nccn2C)c1CC(C)C [Compound 188, Methyl 5-[(1-Methylimidazol-2-yl)thiomethyl]-2-(difluoromethyl)-4-(2-methylpropyl)-6-(trifluoromethyl)-3-pyridinecarboxylate] | > 100 µM

same assay, conditions: Table 6, compounds of formula T-6; read-out: IC50

IC50 | SMILES
30 µM | COC(=O)c1c(C(F)F)nc(C(F)(F)F)c(CSc2c(F)c(F)c(F)c(F)c2F)c1CC(C)C [Compound 194, Methyl 5-[(Pentafluorophenyl)thiomethyl]-2-(difluoromethyl)-4-(2-methylpropyl)-6-(trifluoromethyl)-3-pyridinecarboxylate]
20 µM | COC(=O)c1c(C(F)F)nc(C(F)(F)F)c(CSc2nc3ccccc3o2)c1CC(C)C [Compound 205, Methyl 5-[(Benzoxazol-2-yl)thiomethyl]-2-(difluoromethyl)-4-(2-methylpropyl)-6-(trifluoromethyl)-3-pyridinecarboxylate]
50 µM | COC(=O)c1c(C(F)F)nc(C(F)(F)F)c(CSc2ccccc2Br)c1CC(C)C [Compound 217, Methyl 5-[(2-bromophenyl)thiomethyl]-2-(difluoromethyl)-4-(2-methylpropyl)-6-(trifluoromethyl)-3-pyridinecarboxylate]
40 µM | COC(=O)c1c(C(F)F)nc(C(F)(F)F)c(CSc2ccc3ccccc3n2)c1CC(C)C [Compound 192, Methyl 5-[(Quinolin-2-yl)thiomethyl]-2-(difluoromethyl)-4-(2-methylpropyl)-6-(trifluoromethyl)-3-pyridinecarboxylate]
40 µM | COC(=O)c1c(C(F)F)nc(C(F)(F)F)c(CSc2ccccn2)c1CC(C)C [Compound 216, Methyl 5-[(2-Pyridyl)thiomethyl]-2-(difluoromethyl)-4-(2-methylpropyl)-6-(trifluoromethyl)-3-pyridinecarboxylate]
50 µM | COC(=O)c1c(C(F)F)nc(C(F)(F)F)c(CSc2cc(Cl)ccc2Cl)c1CC(C)C [Compound 195, Methyl 5-[(2,5-Dichlorophenyl)thiomethyl]-2-(difluoromethyl)-4-(2-methylpropyl)-6-(trifluoromethyl)-3-pyridinecarboxylate]

same assay, conditions: Table 7, compounds of formula T-7; read-out: IC50

IC50 | SMILES
15 µM | COC(=O)c1c(C(F)F)nc(C(F)(F)F)c(SCc2ccc(OCc3ccccc3)c(OCc3ccccc3)c2)c1CC(C)C [Compound 222]
50 µM | COC(=O)c1c(C(F)F)nc(C(F)(F)F)c(SCc2cc(Cl)cc(Cl)c2)c1CC(C)C [Compound 243]
50 µM | COC(=O)c1c(C(F)F)nc(C(F)(F)F)c(SCc2ccccc2[N+](=O)[O-])c1CC(C)C [Compound 223]
60 µM | COC(=O)c1c(C(F)F)nc(C(F)(F)F)c(SCc2ccccn2)c1CC(C)C [Compound 233, Methyl 5-[(2-pyridyl)methylthio]-2-(difluoromethyl)-4-(2-methylpropyl)-6-(trifluoromethyl)-3-pyridinecarboxylate]
30 µM | COC(=O)c1c(C(F)F)nc(C(F)(F)F)c(SCc2ccc3c(c2)C(C)(C)CCC3(C)C)c1CC(C)C [Compound 245, Methyl 5-[(1,2,3,4-tetrahydro-1,1,4,4-tetramethyl-6-naphthyl)methylthio]-2-(difluoromethyl)-4-(2-methyl-propyl)-6-(trifluoromethyl)-3-pyridinecarboxylate]

same assay, conditions: Table 8; read-out: IC50

IC50 | SMILES
40 µM | CCOC(=O)c1c(C(F)(F)F)nc(C(F)F)c(C(F)c2ccc(Cl)cc2)c1-c1ccc(F)cc1 (stereo not drawn) [Compound 250]
> 100 µM | CC(C)c1ccc(C(O)c2c(C(F)(F)F)nc(C(F)F)c(CO)c2-c2ccccc2)cc1 (stereo not drawn) [Compound 266]
90 µM | CCOC(=O)c1c(C(F)(F)F)nc(C(F)F)c(C(O)c2ccc(Cl)cc2)c1-c1ccccc1 (stereo not drawn) [Compound 272]
55.3 µM | C=CC(OC(=O)c1ccccc1)c1c(C(F)F)nc(C(F)(F)F)c(C(=O)c2ccc(OCC)cc2)c1-c1ccccc1 (stereo not drawn) [Compound 289]
40 µM | CC(C)c1ccc(C(=O)c2c(C(F)(F)F)nc(C(F)F)c(CO)c2-c2ccccc2)cc1 [Compound 263]
16.2 µM | O=C(c1ccc(C(F)(F)F)cc1)c1c(C(F)(F)F)nc(C(F)F)c(CO)c1-c1ccc(F)cc1 [Compound 292]
10.2 µM | O=Cc1c(C(F)F)nc(C(F)(F)F)c(C(=O)c2ccc(Cl)cc2)c1-c1ccccc1 [Compound 293]
